# Measured values as given in US20120010266A1, “TBC1D7 AS TUMOR MARKER AND THERAPEUTIC TARGET FOR CANCER” (Oncotherapy Science Inc.,, priority 2008, published 2012).
# Read-outs that look alike come from different tables or passages of the source. No end group written: not given here.
# T1: endogenous TSC1 protein (human, lung cancer LC319 cells) (human, UniProt Q92574 1-1164, limits assumed)
# T1 construct: Endogenous protein in LC319 cell extracts
# T1 sequence: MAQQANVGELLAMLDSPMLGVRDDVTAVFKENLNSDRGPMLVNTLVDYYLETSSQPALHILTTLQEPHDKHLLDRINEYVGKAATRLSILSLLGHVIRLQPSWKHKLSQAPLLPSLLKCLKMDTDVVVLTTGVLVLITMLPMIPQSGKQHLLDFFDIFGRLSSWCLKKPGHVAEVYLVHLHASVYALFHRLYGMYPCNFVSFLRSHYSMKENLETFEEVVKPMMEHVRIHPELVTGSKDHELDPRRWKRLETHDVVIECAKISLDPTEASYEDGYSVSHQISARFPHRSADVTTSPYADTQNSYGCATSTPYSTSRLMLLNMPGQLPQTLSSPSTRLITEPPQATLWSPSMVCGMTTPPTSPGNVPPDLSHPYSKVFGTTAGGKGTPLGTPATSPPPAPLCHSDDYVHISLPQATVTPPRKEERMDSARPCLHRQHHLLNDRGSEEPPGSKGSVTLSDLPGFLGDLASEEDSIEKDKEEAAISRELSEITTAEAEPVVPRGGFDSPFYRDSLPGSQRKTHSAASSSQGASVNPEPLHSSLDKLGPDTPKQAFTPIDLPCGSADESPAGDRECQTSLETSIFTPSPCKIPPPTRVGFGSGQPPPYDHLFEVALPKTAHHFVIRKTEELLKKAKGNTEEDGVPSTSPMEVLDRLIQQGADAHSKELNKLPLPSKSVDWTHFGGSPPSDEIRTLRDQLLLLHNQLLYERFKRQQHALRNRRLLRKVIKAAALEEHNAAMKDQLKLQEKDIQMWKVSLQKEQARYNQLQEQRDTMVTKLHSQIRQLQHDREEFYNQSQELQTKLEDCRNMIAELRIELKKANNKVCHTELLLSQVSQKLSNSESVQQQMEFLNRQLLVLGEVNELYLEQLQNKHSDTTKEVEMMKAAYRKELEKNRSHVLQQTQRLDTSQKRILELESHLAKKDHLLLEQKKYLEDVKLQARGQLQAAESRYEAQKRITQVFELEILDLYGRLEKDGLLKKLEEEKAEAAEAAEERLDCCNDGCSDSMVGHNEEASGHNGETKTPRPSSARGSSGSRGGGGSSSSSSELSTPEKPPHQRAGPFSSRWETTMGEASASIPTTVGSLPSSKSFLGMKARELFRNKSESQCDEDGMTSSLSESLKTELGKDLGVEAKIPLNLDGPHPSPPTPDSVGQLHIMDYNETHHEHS
# Key:
# [1] = tested on: normal human lung fibroblast-derived CCD19Lu cells; assay type: cell-based; conditions: CCD19Lu cells in which TBC1D7 expression was hardly detectable, peptide 10, 15 or 20 microM for 3 days
# From the text: (§1) Twenty-amino-acid sequence derived from minimized TSC1-binding domain in TBC1D7 (codons 112-171; see FIG. 5B) was covalently linked at its N-terminus to a membrane transducing 11 poly-arginine sequence (11R) as described elsewhere (Hayama S, Daigo Y, Kato T, et al. Cancer Res 2006; 66:10339-48, Hayama S, Daigo Y, Yamabuki T, et al. Cancer Res 2007; 67:4113-22). Three dominant-negative peptides were synthesized covering the codons 112-171 region: 11R-TBC112-131, RRRRRRRRRRR-GGG-[…] (SEQ ID NO.:23); 11R-TBC132-151, RRRRRRRRRRR-GGG-[…] (SEQ ID NO.:24); 11R-TBC152-171 RRRRRRRRRRR-GGG-[…] (SEQ ID NO.:25). Peptides were purified by preparative reverse-phase high-performance liquid chromatography to make >95% purity. […] The viability of cells was evaluated by MTT assay at 3 days after the treatment.
# [2] = tested on: lung cancer LC319 cells; assay: Dominant-negative peptide assay, MTT, LC319 cells; assay type: cell-based, human; conditions: peptide 10, 15 or 20 microM for 3 days
# From the text: as §1
# [3] = tested on: LC319 and A549 cell lines; assay: Colony formation assay (Giemsa staining) of lung cancer cells transfected with siRNAs against TBC1D7; assay type: cell-based, human; conditions: cultured 7 days after transfection, siRNA 100 nM
# Description: (§2) Small interfering RNA (siRNA) duplexes (Dharmacon, Inc.) (100 nM) were transfected into a NSCLC cell line, A549 and esophageal cancer cell line, TE9, using […] Lipofectamine 2000 (Invitrogen) following the manufacturer's protocol. The transfected cells were cultured for 7 days, and the number of colonies was counted by Giemsa staining, and viability of cells was evaluated by 3-(4,5-dimethylthiazol-2-yl)-2,5-diphenyltetrazolium bromide (MTT) assay (cell counting kit-8 solution; Dojindo Laboratories), at 7 days after transfection. To confirm suppression of TBC1D7 expression, semiquantitative RT-PCR was carried out with synthesized primers specific for TBC1D7 described above. SiRNA duplexes against human TBC1D7, si-TBC1D7-#1: siGenome duplexes 1 [D-021140-01: […]] (SEQ ID NO: 3 for target sequence SEQ ID NO.: 18) and si-TBC1D7-#2: siGenome duplexes 4 [D-021140-4: […]] […]
# (§3) Small interfering RNA (siRNA) duplexes (100 nM) were transfected into a NSCLC cell line, A549 and LC319, using 24 microL of Lipofectamine 2000 (Invitrogen) following the manufacturer's protocol. The transfected cells were cultured for 7 days, and the number of colonies was counted by Giemsa staining, and viability of cells was evaluated by 3-(4,5-dimethylthiazol-2-yl)-2,5-diphenyltetrazolium bromide (MTT) assay (cell counting kit-8 solution; Dojindo Laboratories), at 7 days after transfection. […]
# [4] = tested on: LC319 and A549 cell lines; assay: MTT assay of lung cancer cells transfected with siRNAs against TBC1D7; assay type: cell-based, human; conditions: 7 days after transfection, siRNA 100 nM
# Description: as §2, §3
# [5] = tested on: TBC1D7; assay: RNA interference assay: knockdown of TBC1D7 expression, semiquantitative RT-PCR; assay type: cell-based, human; conditions: LC319 and A549 cells; siRNA duplexes 100 nM transfected; versus control siRNAs (si-EGFP, si-LUC)
# Description: Total RNA was extracted from cultured cells and clinical tissues using Trizol reagent (Life Technologies, Inc.) according to the manufacturer's protocol. Extracted RNAs were treated with DNase I (Nippon Gene) and reversely-transcribed using oligo (dT) primer and SuperScript II reverse transcriptase (Invitrogen). […]
# as §3, with “duplexes (Dharmacon, Inc.)” for “duplexes”, “esophageal cancer cell line, TE9,” for “LC319,”, “[…]” for “24 microL”
# as §3
# [6] = tested on: lung cancer LC319 cells; assay: Flow cytometric cell cycle analysis after si-TBC1D7 transfection; assay type: cell-based, human; conditions: 48 to 96 hours after transfection
# Description: Cells were collected in PBS, and fixed in 70% cold ethanol for 30 minutes. After treatment with 100 micro g/mL RNase (Sigma/Aldrich, St. Louis, Mo.), the cells were stained with 50 micro g/mL propidium iodide (Sigma/Aldrich, St. Louis, Mo.) in PBS. Flow cytometry was done on a Becton Dickinson FACScan and analyzed by ModFit software (Verity Software House, Inc., Topsham, Me.). The cells selected from at least 10,000 ungated cells were analyzed for DNA content.
# [7] = molecular target: T1, endogenous TSC1 protein (human, lung …); assay: summary of the immunoprecipitation results in the discussion
# [8] = molecular target: T1, endogenous TSC1 protein (human, lung …); assay: immunoprecipitation experiments using LC319 cells, as the legend of FIG. 5A says
# From the text: FIG. 5 depicts identification of TSC1-interacting region in TBC1D7 and inhibition of growth of lung cancer cells by dominant-negative peptides of TBC1D7. A, Left panel, Schematic drawing of six N-terminal Flag-tagged TBC1D7 partial protein constructs lacking either or both of the terminal regions. Right panels, Identification of the region in TBC1D7 that binds to TSC1 by immunoprecipitation experiments using LC319 cells. The TBC1D7₁₁₂₋₁₇₁ construct, which corresponds to a center region in TBC domain, was indicated to be TSC1-interacting region. B, Left top panel, Schematic drawing of three cell permeable peptides of TBC1D7 covering TBC1D7₁₁₂₋₁₇₁ that corresponds to the TSC1-interacting region in TBC1D7. B, Right top panels, Reduction of the complex formation between endogenous TSC1 and endogenous TBC1D7 proteins, detected by immunoprecipitation assay in LC319 cells that were treated with the 11R-TBC₁₅₂₋₁₇₁ peptides. C, MTT assay showing growth suppressive effect of 11R-TBC₁₅₂₋₁₇₁ peptides that were introduced into LC319 cells that expressed both TBC1D7 and TSC1 proteins. Bars, SD of triplicate assays. D, Left panels, Expressions of TBC1D7 and TSC1 proteins in lung cancer cell line LC319 and normal human lung fibroblast-derived CCD19Lu cells, examined by western blot analysis. […]
molecule,measurement,setting,value
RRRRRRRRRRRGGGYWITRRFVNQLNTKYRDSLP [11R-TBC1D7152-171],"cell viability of normal cells (off-target toxic effect), MTT assay",[1],no effect on cell viability
same,"cell viability of normal cells (off-target toxic effect), MTT assay",[1]; listed as 11R-TBC152-171,no off-target effect
RRRRRRRRRRR-GGG-YQLESGKLPRSPSFPLEPDD (RRRRRRRRRRRGGGYQLESGKLPRSPSFPLEPDD; a dominant-negative peptide) [11R-TBC1D7112-131],"cell viability / cell growth, MTT assay",[2],no effect on cell growth
RRRRRRRRRRR-GGG-EVFLAIAKAMEEMVEDSVDC (RRRRRRRRRRRGGGEVFLAIAKAMEEMVEDSVDC; a dominant-negative peptide) [11R-TBC1D7132-151],"cell viability / cell growth, MTT assay",[2],no effect on cell growth
"si-TBC1D7-#2: siRNA duplex against human TBC1D7, GAUAAAGUUGUGAGUGGAUUU (SEQ ID NO: 4, target SEQ ID NO: 19), purchased from Dharmacon (chemistry not given here)","number of cells / colonies, colony-formation assay",[3],drastic reduction in the number of cells
same,"number / viability of cells, MTT assay (cell growth)",[4],drastic reduction in the number of cells
same,knockdown effect on TBC1D7 expression (RT-PCR),[5],knockdown effect was confirmed
"si-TBC1D7-#1: siRNA duplex against human TBC1D7, GAACAGUGCAGAGAAGAUAUU (SEQ ID NO: 3, target SEQ ID NO: 18), purchased from Dharmacon (chemistry not given here)",number of cells in S phase,[6],continuously decreased
same,proportion of the cells in G2/M phase,[6],increased
same,"number of cells / colonies, colony-formation assay",[3],drastic reduction in the number of cells
same,"number / viability of cells, MTT assay (cell growth)",[4],drastic reduction in the number of cells
same,knockdown effect on TBC1D7 expression (RT-PCR),[5],knockdown effect was confirmed
"endogenous TBC1D7 protein (human, lung cancer LC319 cells) (other, Endogenous protein in cell extracts; also called TBC1 domain family, member 7) MTEDSQRNFRSVYYEKVGFRGVEEKKSLEILLKDDRLDTEKLCTFSQRFPLPSMYRALVWKVLLGILPPHHESHAKVMMYRKEQYLDVLHALKVVRFVSDATPQAEVYLRMYQLESGKLPRSPSFPLEPDDEVFLAIAKAMEEMVEDSVDCYWITRRFVNQLNTKYRDSLPQLPKAFEQYLNLEDGRLLTHLRMCSAAPKLPYDLWFKRCFAGCLPESSLQRVWDKVVSGSCKILVFVAVEILLTFKIKVMALNSAEKITKFLENIPQDSSDAIVSKAIDLWHKHCGTPVHSS",binding result,[7],binds
"TBC112-171, N-terminal Flag-tagged TBC1D7 partial protein construct (other, not shown: small tags and cut ends) YQLESGKLPRSPSFPLEPDDEVFLAIAKAMEEMVEDSVDCYWITRRFVNQLNTKYRDSLP",binding result,[8],binds
